According to US20090099217A1, “2-Aminopyrimidin-4-Ones And Their Use For Treating Or Preventing Alpha Beta-Related Pathologies” (ASTEX THERAPEUTICS LTD., priority 2006, published 2009):
pIC50: −log10 of the molar value. Structures can show the parent of a compound that is named as a salt.

Target: T1, human β-Secretase (Homo sapiens, UniProt P56817)
T1 construct: The soluble part of the human β-Secretase (AA 1-AA 460) was cloned; Fc domain of IgG1 (C); made in house
Experiment: TR-FRET Assay
Format: biochemical
Conditions: sBACE-Fc enzyme 0.3 nM; substrate (Europium)CEVNLDAEFK(Qsy7) 100 nM; pH 4.5
Description: The enzyme used in the IGEN Cleavage-, Fluorescent-, TR-FRET- and the BiaCore assay is described as follows:
The soluble part of the human β-Secretase (AA 1-AA 460) was cloned into the ASP2-Fc10-1-IRES-GFP-neoK mammalian expression vector. The gene was fused to the Fc domain of IgG1 (affinity tag) and stably cloned into HEK 293 cells. Purified sBACE-Fc is stored in Tris buffer, pH 9.2 and has a purity of 95%.
Dilute the enzyme (truncated form) to 6 μg/mL (stock 1.3 mg/mL) and the substrate (Europium)CEVNLDAEFK(Qsy7) to 200 nM (stock 60 μM) in reaction buffer (NaAcetate, chaps, triton x-100, EDTA pH4.5). The Biomek FX is used for all liquid handling and the enzyme and substrate solutions are kept on ice until they are placed in Biomek FX. Enzyme (9 μl) is added to the plate then 1 μl of compound in dimethylsulphoxide is added, mixed and pre-incubated for 10 minutes. Substrate (10 μl) is then added, mixed and the reaction proceeds in the dark for 15 minutes at room temperature. The reaction is stopped with the addition of Stop solution (7 μl, NaAcetate pH 9). The fluorescence of the product is measured on a Victor II plate reader with an excitation wavelength of 340 nm and an emission wavelength of 615 nm. The assay is done in a Costar 384 well round bottom, low volume, non-binding surface (Corning #3676). […]

T1 sequence (P56817 22-460): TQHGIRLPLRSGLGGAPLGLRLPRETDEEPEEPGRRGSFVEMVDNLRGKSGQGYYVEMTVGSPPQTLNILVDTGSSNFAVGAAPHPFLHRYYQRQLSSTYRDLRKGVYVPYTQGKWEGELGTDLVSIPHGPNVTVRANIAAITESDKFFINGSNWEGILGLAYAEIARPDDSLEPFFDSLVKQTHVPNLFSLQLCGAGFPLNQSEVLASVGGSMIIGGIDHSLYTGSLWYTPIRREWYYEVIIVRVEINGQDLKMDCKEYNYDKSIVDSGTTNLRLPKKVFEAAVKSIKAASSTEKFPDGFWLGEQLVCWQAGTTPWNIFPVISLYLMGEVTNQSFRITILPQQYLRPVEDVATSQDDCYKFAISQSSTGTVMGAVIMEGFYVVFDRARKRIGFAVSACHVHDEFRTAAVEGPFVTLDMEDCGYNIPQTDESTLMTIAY

pIC50 | SMILES
6.94 | CN1C(=O)CC(C)(CCc2cccc(-c3ccnc(Cl)c3)c2)N=C1N (centres unmarked) [Example 20, 2-Amino-6-{2-[3-(2-chloropyridin-4-yl)phenyl]ethyl}-3,6-dimethyl-5,6-dihydropyrimidin-4(3H)-one hydrochloride]
6.50 | COc1cncc(-c2cccc(C3(C)CC(=O)N(C)C(N)=N3)c2)c1 (centres unmarked) [Example 21, 2-Amino-6-[3-(5-methoxypyridin-3-yl)phenyl]-3,6-dimethyl-5,6-dihydropyrimidin-4(3H)-one hydrochloride]
